Consider 37 compounds from patent US7728146B2, “Enzyme inhibitors” (Probiodrug AG, priority 2006, dated 2010).

The test concerns the target DP IV (Homo sapiens, UniProt P27487). Put plainly: DP IV inhibition IC50, parallel-synthesis compounds tested directly following synthesis (without purification). Also on record: IC50 DP4; other: tested directly following parallel synthesis, without purification; compounds of formula (Ib) from parallel synthesis, tested directly following synthesis. In kind it is biochemical. The settings on record: DP IV inhibition; compounds of formula (Ib) from parallel synthesis, tested directly following synthesis (without purification); read-out: IC50. As for the experimental part: Compounds were immediately tested regarding their activity as DP IV inhibitors.
Substances are screened for inhibition of dipeptidyl peptidase (DP IV) by their ability to inhibit the hydrolysis of the DP IV specific substrate Glycyl-Prolyl-4-Nitroanilide (Gly-Pro-pNA). All compounds are diluted in DMSO and IC50 will be determined with 11 serial dilutions (1:2) starting with an final concentration of 100 μM. The final DMSO concentration in the assay is 5% (v/v). The method was automated using a Tecan Genesis Freedom liquid handler and a Genius Pro (Tecan) microplate reader.
DP IV from porcine kidney (pDP IV) or recombinant human DP IV (rhDP IV) is diluted in HEPES buffer to a final activity of approximately 40-50 μU*ml^−1. The DP IV is stored in a cooling rack (4° C.) on the liquid handler.
The assay may becarried out at room temperature using Freedom liquid handler connected with a Genios Pro microplate reader. Each sample is measured in duplicate. Each sample stock solution is prediluted with DMSO in a ratio of 1:5 in a polypropylen 96-well plate. From this predilution 10 serial (1:2) dilutions in DMSO are prepared. 13.5 μl of the 11 DMSO dilutions and DMSO alone are transferred to the measurement microplate (duplicates) and 86.5 μl water, 100 μl HEPES buffer and 50 μl substrate solution are added to each well. The enzymatic reaction is started by addition of 20 μl enzyme solution to each well, and then the microplate is immediately transferred to the microplate reader.
After short mixing (20 s) the release of 4-Nitroanilin (pNA) is monitored at 405 nm for 30 cycles (approx. 18 min).
Post assay calculations are done by the Magellan (Tecan) and Graphit Software. The linear slopes are calculated for each well and averaged for the duplicates. The residue activities are calculated in relation to a sample containing only solvent instead of inhibitor and expressed in %. Residue activities are plotted against the log of inhibitor concentrations and IC50 is calculated by an 4-parameter fitting ranging from 0 to 100%.
By IC50 is commonly meant the point on the concentration scale where inhibition reaches its midpoint. For the compound `NCc1c(-c2ccc(Cl)cc2Cl)ncn1CCN1CCCCC1` [58b, C-[5-(2,4-Dichloro-phenyl)-3-(2-piperidin-1-yl-ethyl)-3H-imidazol-4-yl]-methylamine], the IC50 came out at 42.4 µM.

For the compound `COCCn1cnc(-c2ccc(Cl)cc2Cl)c1CN` [60b, C-[5-(2,4-Dichloro-phenyl)-3-(2-methoxy-ethyl)-3H-imidazol-4-yl]-methylamine], the IC50 stood at 20.8 µM.

`CCCCCCn1cnc(-c2ccc(Cl)cc2Cl)c1C(C)N` (stereo not shown) [61b, 1-[5-(2,4-Dichloro-phenyl)-3-hexyl-3H-imidazol-4-yl]-ethylamine]: the half-maximal inhibitory concentration (IC50) is 40.6 µM.

On to `COc1ccc(Cn2cnc(-c3ccc(Cl)cc3Cl)c2[C@H](C)N)c(OC)c1` [62b, (S)-1-[5-(2,4-Dichloro-phenyl)-3-(2,4-dimethoxy-benzyl)-3H-imidazol-4-yl]-ethylamine], for which the IC50 was found to be 10 µM.

For the compound `CC(N)c1c(-c2ccc(Cl)cc2Cl)ncn1CCc1ccccc1Cl` (stereo not shown) [63b, 1-[3-[2-(2-Chloro-phenyl)-ethyl]-5-(2,4-dichloro-phenyl)-3H-imidazol-4-yl]-ethylamine], the IC50 stood at 19 µM.

With `CC(N)c1c(-c2ccc(Cl)cc2Cl)ncn1CCc1cccc(Cl)c1` (stereo not shown) [64b, 1-[3-[2-(3-Chloro-phenyl)-ethyl]-5-(2,4-dichloro-phenyl)-3H-imidazol-4-yl]-ethylamine], the IC50 stood at 28.9 µM.

Regarding `NCc1c(-c2ccc(Cl)cc2Cl)ncn1CCC1=CCCCC1` [65b, C-[3-(2-Cyclohex-1-enyl-ethyl)-5-(2,4-dichloro-phenyl)-3H-imidazol-4-yl]-methylamine], the IC50 came to 2.8 µM.

In the case of `Cc1ccc(Cn2cnc(-c3ccc(Cl)cc3Cl)c2CN)cc1` [66b, C-[5-(2,4-Dichloro-phenyl)-3-(4-methyl-benzyl)-3H-imidazol-4-yl]-methylamine], the IC50 came to 11.8 µM.

As to `CC(N)c1c(-c2ccc(Cl)cc2Cl)ncn1Cc1ccccc1Cl` (stereo not shown) [67b, 1-[3-(2-Chloro-benzyl)-5-(2,4-dichloro-phenyl)-3H-imidazol-4-yl]-ethylamine], the IC50 was found to be 28.9 µM.

In the case of `CC(N)c1c(-c2ccc(Cl)cc2Cl)ncn1Cc1ccc(F)c(F)c1` (stereo not shown) [68b, 1-[5-(2,4-Dichloro-phenyl)-3-(3,4-difluoro-benzyl)-3H-imidazol-4-yl]-ethylamine], the IC50 came out at 26.2 µM.

Take `CCNCCn1cnc(-c2ccc(Cl)cc2Cl)c1CN` [69b, {2-[5-Aminomethyl-4-(2,4-dichloro-phenyl)-imidazol-1-yl]-ethyl}-ethyl-amine]: the 50% inhibitory concentration (IC50) is 19 µM.

As to `CC(N)c1c(-c2ccc(Cl)cc2Cl)ncn1CCCc1ccccc1` (stereo not shown) [70b, 1-[5-(2,4-Dichloro-phenyl)-3-(3-phenyl-propyl)-3H-imidazol-4-yl]-ethylamine], the IC50 is 41.5 µM.

Consider `CC(N)c1c(-c2ccc(Cl)cc2Cl)ncn1CCC1=CCCCC1` (stereo not shown) [71b, 1-[3-(2-Cyclohex-1-enyl-ethyl)-5-(2,4-dichloro-phenyl)-3H-imidazol-4-yl]-ethylamine], for which the IC50 amounted to 35.2 µM.

`CC(O)Cn1cnc(-c2ccc(Cl)cc2Cl)c1CN` (stereo not shown) [72b, 1-[5-Aminomethyl-4-(2,4-dichloro-phenyl)-imidazol-1-yl]-propan-2-ol]: the IC50 is 20.8 µM.

With `CC(N)c1c(-c2ccc(Cl)cc2Cl)ncn1CCc1ccccn1` (stereo not shown) [73b, 1-[5-(2,4-Dichloro-phenyl)-3-(2-pyridin-2-yl-ethyl)-3H-imidazol-4-yl]-ethylamine], the IC50 was found to be 38.8 µM.

Take `NCCCc1c(-c2ccc(Cl)cc2Cl)ncn1CCNc1ccc([N+](=O)[O-])cn1` [74b, {2-[5-(3-Amino-propyl)-4-(2,4-dichloro-phenyl)-imidazol-1-yl]-ethyl}-(5-nitro-pyridin-2-yl)-amine]: the IC50 was determined as 12.7 µM.

Consider `NCc1c(-c2ccc(Cl)cc2Cl)ncn1Cc1ccc(-c2ccccc2)cc1` [75b, C-[3-Biphenyl-4-ylmethyl-5-(2,4-dichloro-phenyl)-3H-imidazol-4-yl]-methylamine], for which the IC50 came to 23.5 µM.

Regarding `COc1cccc(Cn2cnc(-c3ccc(Cl)cc3Cl)c2C(C)N)c1` (stereo not shown) [76b, 1-[5-(2,4-Dichloro-phenyl)-3-(3-methoxy-benzyl)-3H-imidazol-4-yl]-ethylamine], the IC50 is 10 µM.

Regarding `NCc1c(-c2ccc(Cl)cc2Cl)ncn1Cc1ccc(Cl)c(Cl)c1` [77b, C-[3-(3,4-Dichloro-benzyl)-5-(2,4-dichloro-phenyl)-3H-imidazol-4-yl]-methylamine], the IC50 came out at 7.3 µM.

As to `CC(N)c1c(-c2ccc(Cl)cc2Cl)ncn1Cc1cccnc1` (stereo not shown) [78b, 1-[5-(2,4-Dichloro-phenyl)-3-pyridin-3-ylmethyl-3H-imidazol-4-yl]-ethylamine], the IC50 turned out to be 28 µM.

As to `NCCc1c(-c2ccc(Cl)cc2Cl)ncn1CCNc1ccc([N+](=O)[O-])cn1` [79b, {2-[5-(2-Amino-ethyl)-4-(2,4-dichloro-phenyl)-imidazol-1-yl]-ethyl}-(5-nitro-pyridin-2-yl)-amine], the concentration for half-maximal inhibition (IC50) is 16.3 µM.

For the compound `COc1ccccc1Cn1cnc(-c2ccc(Cl)cc2Cl)c1C(C)N` (stereo not shown) [80b, 1-[5-(2,4-Dichloro-phenyl)-3-(2-methoxy-benzyl)-3H-imidazol-4-yl]-ethylamine], the IC50 is 2.8 µM.

Turning to `NCc1c(-c2ccc(Cl)cc2Cl)ncn1Cc1ccc(Cl)cc1` [82b, C-[3-(4-Chloro-benzyl)-5-(2,4-dichloro-phenyl)-3H-imidazol-4-yl]-methylamine], the IC50 worked out at 15.4 µM.

As to `NCc1c(-c2ccc(Cl)cc2Cl)ncn1CCc1ccccc1F` [83b, C-{5-(2,4-Dichloro-phenyl)-3-[2-(2-fluoro-phenyl)-ethyl]-3H-imidazol-4-yl}-methylamine], the IC50 stood at 5.5 µM.

For `CCCCCCn1cnc(-c2ccc(Cl)cc2Cl)c1CN` [84b, C-[5-(2,4-Dichloro-phenyl)-3-hexyl-3H-imidazol-4-yl]-methylamine], the IC50 came out at 1 µM.

Take `NCc1c(-c2ccc(Cl)cc2Cl)ncn1CCc1ccccn1` [85b, C-[5-(2,4-Dichloro-phenyl)-3-(2-pyridin-2-yl-ethyl)-3H-imidazol-4-yl]-methylamine]: the IC50 was found to be 24.4 µM.

For the compound `CCCn1cnc(-c2ccc(Cl)cc2Cl)c1CN` [86b, C-[5-(2,4-Dichloro-phenyl)-3-propyl-3H-imidazol-4-yl]-methylamine], the IC50 worked out at 17.2 µM.

Turning to `Cc1[nH]ncc1CCCn1cnc(-c2ccc(Cl)cc2Cl)c1CN` [87b, C-{5-(2,4-Dichloro-phenyl)-3-[3-(5-methyl-1H-pyrazol-4-yl)-propyl]-3H-imidazol-4-yl}-methylamine], the concentration for half-maximal inhibition (IC50) was found to be 8.2 µM.

For `C[C@H](N)c1c(-c2ccc(Cl)cc2Cl)ncn1CCC(c1ccccc1)c1ccccc1` [88b, (S)-1-[5-(2,4-Dichloro-phenyl)-3-(3,3-diphenyl-propyl)-3H-imidazol-4-yl]-ethylamine], the IC50 was 28 µM.

Regarding `NCc1c(-c2ccc(Cl)cc2Cl)ncn1Cc1cccc(C(F)(F)F)c1` [89b, C-[5-(2,4-Dichloro-phenyl)-3-(3-trifluoromethyl-benzyl)-3H-imidazol-4-yl]-methylamine], the IC50 worked out at 1.9 µM.

For `NCCCc1c(-c2ccc(Cl)cc2Cl)ncn1CCc1ccccc1Cl` [90b, 3-[3-[2-(2-Chloro-phenyl)-ethyl]-5-(2,4-dichloro-phenyl)-3H-imidazol-4-yl]-propylamine], the half-maximal inhibitory concentration (IC50) was determined as 14.5 µM.

For the compound `NCc1c(-c2ccc(Cl)cc2Cl)ncn1CCCc1ccccc1` [91b, C-[5-(2,4-Dichloro-phenyl)-3-(3-phenyl-propyl)-3H-imidazol-4-yl]-methylamine], the IC50 was 12.7 µM.

For the compound `NCc1c(-c2ccc(Cl)cc2Cl)ncn1Cc1ccc(Cl)cc1Cl` [93b, C-[3-(2,4-Dichloro-benzyl)-5-(2,4-dichloro-phenyl)-3H-imidazol-4-yl]-methylamine], the IC50 was found to be 35.2 µM.

Take `NCc1c(-c2ccc(Cl)cc2Cl)ncn1Cc1ccncc1` [94b, C-[5-(2,4-Dichloro-phenyl)-3-pyridin-4-ylmethyl-3H-imidazol-4-yl]-methylamine]: the IC50 was 8.2 µM.

Regarding `COc1ccc(Cn2cnc(-c3ccc(Cl)cc3Cl)c2C(C)N)cc1OC` (stereo not shown) [95b, 1-[5-(2,4-Dichloro-phenyl)-3-(3,4-dimethoxy-benzyl)-3H-imidazol-4-yl]-ethylamine], the IC50 turned out to be 19.9 µM.

As for `CC(N)c1c(-c2ccc(Cl)cc2Cl)ncn1Cc1ccccn1` (stereo not shown) [96b, 1-[5-(2,4-Dichloro-phenyl)-3-pyridin-2-ylmethyl-3H-imidazol-4-yl]-ethylamine], the IC50 came out at 14.5 µM.

As for `NCc1c(-c2ccc(Cl)cc2Cl)ncn1Cc1ccc(OC(F)(F)F)cc1` [97b, C-[5-(2,4-Dichloro-phenyl)-3-(4-trifluoromethoxy-benzyl)-3H-imidazol-4-yl]-methylamine], the IC50 is 2.8 µM.
